Where a name gives a salt, the structure may show the parent alone.
The molecules below were run against T1, HIV integrase (Human immunodeficiency virus type 1 group M subtype B, UniProt P12497, F1332H) (assay: Determination of enzyme (HIV integrase) inhibitory activity). Conditions: recombinant HIV integrase (F185H), strand transfer ELISA, absorbance at 450 nm.
T1 construct: HIV integrase full length gene; made in house; host or cells: Escherichia coli BL21(DE3), plasmid pET21a-INH
Assay type: biochemical
Outline: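 Full-length integrase with F185H, expressed in E. coli and purified, was reacted for 60 min at 37 °C with compound and biotinylated donor DNA bound to streptavidin plates. Target DNA was added for 10 min, then anti-digoxigenin-peroxidase detection at A450; IC50 from % inhibition versus enzyme-free blank.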

`O=C1c2c(O)c(=O)c(-c3cccnn3)cn2CCN1Cc1cccc(Cl)c1` [Example 290, 2-(3-chlorobenzyl)-9-hydroxy-7-(pyridazin-3-yl)-3,4-dihydro-2H-pyrido[1,2-a]pyrazine-1,8-dione hydrochloride] and `Cc1nsc(-c2cn3c(c(O)c2=O)C(=O)N(Cc2cccc(Cl)c2)CC3)n1` [Example 300, 2-(3-chlorobenzyl)-9-hydroxy-7-(3-methyl-1,2,4-thiadiazol-5-yl)-3,4-dihydro-2H-pyrido[1,2-a]pyrazine-1,8-dione hydrochloride] fall in the same range of IC50: 10 to 100 nM for the first, 10 to 100 nM for the second.

Compared with `O=C1c2c(O)c(=O)c(-c3nccs3)cn2CCN1Cc1ccc(F)c(F)c1` [Example 291, 2-(3,4-difluorobenzyl)-9-hydroxy-7-(thiazol-2-yl)-3,4-dihydro-2H-pyrido[1,2-a]pyrazine-1,8-dione], `O=C1c2c(O)c(=O)c(-c3nccs3)cn2CCN1Cc1ccc(Cl)c(F)c1` [Example 294, 2-(4-chloro-3-fluorobenzyl)-9-hydroxy-7-(thiazol-2-yl)-3,4-dihydro-2H-pyrido[1,2-a]pyrazine-1,8-dione] is lower in IC50: 10 to 100 nM for the first, less than 10 nM for the second.

First: O=C1c2c(O)c(=O)c(-c3nccs3)cn2CCN1Cc1cccc(Cl)c1F [Example 292, 2-(3-chloro-2-fluorobenzyl)-9-hydroxy-7-(thiazol-2-yl)-3,4-dihydro-2H-pyrido[1,2-a]pyrazine-1,8-dione]
Second: O=C1c2c(O)c(=O)c(-c3nccs3)cn2CCN1CCCc1cccc(Cl)c1F [Example 312, 2-[3-(3-chloro-2-fluorophenyl)propyl]-9-hydroxy-7-(thiazol-2-yl)-3,4-dihydro-2H-pyrido[1,2-a]pyrazine-1,8-dione]
The IC50 of the first is lower: less than 10 nM for the first, 10 to 100 nM for the second. The first is the more potent here.

`O=C1c2c(O)c(=O)c(-c3nccs3)cn2CCN1Cc1ccc(Cl)cc1` [Example 293, 2-(4-chlorobenzyl)-9-hydroxy-7-(thiazol-2-yl)-3,4-dihydro-2H-pyrido[1,2-a]pyrazine-1,8-dione] and `O=C1c2c(O)c(=O)c(-c3nccs3)cn2CCN1Cc1ccc(F)cc1` [Example 309, 2-(4-fluorobenzyl)-9-hydroxy-7-(thiazol-2-yl)-3,4-dihydro-2H-pyrido[1,2-a]pyrazine-1,8-dione] fall in the same range of IC50: 10 to 100 nM for the first, 10 to 100 nM for the second.

First: COc1cc(Cl)ccc1CN1CCn2cc(-c3nccs3)c(=O)c(O)c2C1=O [Example 295, 2-(4-chloro-2-methoxybenzyl)-9-hydroxy-7-(thiazol-2-yl)-3,4-dihydro-2H-pyrido[1,2-a]pyrazine-1,8-dione]
Second: O=C1c2c(O)c(=O)c(-c3nccs3)cn2CCN1Cc1ccccc1Cl [Example 310, 2-(2-chlorobenzyl)-9-hydroxy-7-(thiazol-2-yl)-3,4-dihydro-2H-pyrido[1,2-a]pyrazine-1,8-dione]
The IC50 of the first is lower: 10 to 100 nM for the first, 100 to 1000 nM for the second.

`Cn1cccc1C(=O)Nc1cn2ccn(Cc3cccc(Cl)c3)c(=O)c2c(O)c1=O` [Example 296, N-[2-(3-chlorobenzyl)-9-hydroxy-1,8-dioxo-1,8-dihydro-2H-pyrido[1,2-a]pyrazin-7-yl]-1-methyl-1H-pyrrole-2-carboxamide] and `O=C(Nc1cn2ccn(Cc3ccc(F)cc3)c(=O)c2c(O)c1=O)c1ccccc1` [Example 304, N-[2-(4-fluorobenzyl)-9-hydroxy-1,8-dioxo-1,8-dihydro-2H-pyrido[1,2-a]pyrazin-7-yl]benzamide] cannot be ordered by IC50: less than 10 nM for the first, less than 10 nM for the second.

`O=C1c2c(O)c(=O)c(-c3nccs3)cn2CCN1CCCc1ccc(Cl)cc1` [Example 297, 2-[3-(4-chlorophenyl)propyl]-9-hydroxy-7-(thiazol-2-yl)-3,4-dihydro-2H-pyrido[1,2-a]pyrazine-1,8-dione hydrochloride] and `O=C1c2c(O)c(=O)c(-c3nccs3)cn2CCN1CCCc1ccc(F)cc1` [Example 314, 2-[3-(4-fluorophenyl)propyl]-9-hydroxy-7-(thiazol-2-yl)-3,4-dihydro-2H-pyrido[1,2-a]pyrazine-1,8-dione] fall in the same range of IC50: 10 to 100 nM for the first, 10 to 100 nM for the second.

Compared with `O=C1c2c(O)c(=O)c(-c3nccs3)cn2CCN1CCCc1ccccc1Cl` [Example 298, 2-[3-(2-chlorophenyl)propyl]-9-hydroxy-7-(thiazol-2-yl)-3,4-dihydro-2H-pyrido[1,2-a]pyrazine-1,8-dione hydrochloride], `O=C1c2c(O)c(=O)c(-c3nccs3)cn2CCN1CCCc1ccccc1` [Example 316, 9-hydroxy-2-(3-phenylpropyl)-7-(thiazol-2-yl)-3,4-dihydro-2H-pyrido[1,2-a]pyrazine-1,8-dione hydrochloride] is higher in IC50: less than 10 nM for the first, 10 to 100 nM for the second.

`O=C1c2c(O)c(=O)c(-c3nccs3)cn2CCN1CCCc1cccc(Cl)c1` [Example 299, 2-[3-(3-chlorophenyl)propyl]-9-hydroxy-7-(thiazol-2-yl)-3,4-dihydro-2H-pyrido[1,2-a]pyrazine-1,8-dione hydrochloride] and `O=C1c2c(O)c(=O)c(-c3nccs3)cn2CCN1CCCc1cccc(F)c1` [Example 315, 2-[3-(3-fluorophenyl)propyl]-9-hydroxy-7-(thiazol-2-yl)-3,4-dihydro-2H-pyrido[1,2-a]pyrazine-1,8-dione] fall in the same range of IC50: 10 to 100 nM for the first, 10 to 100 nM for the second.

First: CNC(=O)c1cc(F)ccc1CN1CCn2cc(-c3nccs3)c(=O)c(O)c2C1=O [Example 301, 5-fluoro-2-[9-hydroxy-1,8-dioxo-7-(thiazol-2-yl)-1,3,4,8-tetrahydro-pyrido[1,2-a]pyrazin-2-ylmethyl]-N-methylbenzamide]
Second: O=C1c2c(O)c(=O)c(-c3nccs3)cn2CCN1Cc1cccc(F)c1 [Example 308, 2-(3-fluorobenzyl)-9-hydroxy-7-(thiazol-2-yl)-3,4-dihydro-2H-pyrido[1,2-a]pyrazine-1,8-dione]
The IC50 of the first is higher: 100 to 1000 nM for the first, 10 to 100 nM for the second.

`CC(=O)N(CC(C)C)c1cn2ccn(Cc3cccc(Cl)c3)c(=O)c2c(O)c1=O` [Example 302, N-[2-(3-chlorobenzyl)-9-hydroxy-1,8-dioxo-1,8-dihydro-2H-pyrido[1,2-a]pyrazin-7-yl]-N-isobutylacetamide] and `CC(C)C(=O)Nc1cn2ccn(Cc3ccc(F)cc3)c(=O)c2c(O)c1=O` [Example 321, N-[2-(4-fluorobenzyl)-9-hydroxy-1,8-dioxo-1,8-dihydro-2H-pyrido[1,2-a]pyrazin-7-yl]isobutyramide] fall in the same range of IC50: 10 to 100 nM for the first, 10 to 100 nM for the second.

`CC(=O)Nc1cn2ccn(Cc3ccc(F)cc3)c(=O)c2c(O)c1=O` [Example 303, N-[2-(4-fluorobenzyl)-9-hydroxy-1,8-dioxo-1,8-dihydro-2H-pyrido[1,2-a]pyrazin-7-yl]acetamide] and `COCC(=O)Nc1cn2ccn(Cc3ccc(F)cc3)c(=O)c2c(O)c1=O` [Example 318, N-[2-(4-fluorobenzyl)-9-hydroxy-1,8-dioxo-1,8-dihydro-2H-pyrido[1,2-a]pyrazin-7-yl]-2-methoxyacetamide] fall in the same range of IC50: 10 to 100 nM for the first, 10 to 100 nM for the second.

First: CS(=O)(=O)Nc1cn2ccn(Cc3ccc(F)cc3)c(=O)c2c(O)c1=O [Example 305, N-[2-(4-fluorobenzyl)-9-hydroxy-1,8-dioxo-1,8-dihydro-2H-pyrido[1,2-a]pyrazin-7-yl]methanesulfonamide]
Second: CC(C)S(=O)(=O)Nc1cn2ccn(Cc3ccc(F)cc3)c(=O)c2c(O)c1=O [Example 319, N-[2-(4-fluorobenzyl)-9-hydroxy-1,8-dioxo-1,8-dihydro-2H-pyrido[1,2-a]pyrazin-7-yl]-2-propanesulfonamide]
The IC50 of the first is lower: less than 10 nM for the first, 10 to 100 nM for the second. The first is the more potent here.

Compared with `O=c1c(-c2ccccn2)cn2ccn(Cc3ccc(F)cc3)c(=O)c2c1O` [Example 306, 2-(4-fluorobenzyl)-9-hydroxy-7-(pyridin-2-yl)-2H-pyrido[1,2-a]pyrazine-1,8-dione trifluoroacetate], `O=C(Nc1cn2ccn(Cc3ccc(F)cc3)c(=O)c2c(O)c1=O)c1cccnc1` [Example 320, N-[2-(4-fluorobenzyl)-9-hydroxy-1,8-dioxo-1,8-dihydro-2H-pyrido[1,2-a]pyrazin-7-yl]nicotinamide trifluoroacetate] is lower in IC50: 10 to 100 nM for the first, less than 10 nM for the second.

First: O=C1c2c(O)c(=O)c(-c3nccs3)cn2CCN1Cc1ccccc1F [Example 307, 2-(2-fluorobenzyl)-9-hydroxy-7-(thiazol-2-yl)-3,4-dihydro-2H-pyrido[1,2-a]pyrazine-1,8-dione]
Second: O=C1c2c(O)c(=O)c(-c3nccs3)cn2CCN1Cc1ccc2ccccc2c1 [Example 311, 9-hydroxy-2-(naphthalen-2-ylmethyl)-7-(thiazol-2-yl)-3,4-dihydro-2H-pyrido[1,2-a]pyrazine-1,8-dione]
The IC50 of the first is higher: 100 to 1000 nM for the first, less than 10 nM for the second. The second is the more potent here.

`O=C1c2c(O)c(=O)c(-c3nccs3)cn2CCN1CCCc1ccc(Cl)c(F)c1` [Example 313, 2-[3-(4-chloro-3-fluorophenyl)propyl]-9-hydroxy-7-(thiazol-2-yl)-3,4-dihydro-2H-pyrido[1,2-a]pyrazine-1,8-dione] and `O=C1c2c(O)c(=O)c(-c3ccccn3)cn2CCN1Cc1cccc(Cl)c1F` [Example 317, 2-(3-chloro-2-fluorobenzyl)-9-hydroxy-7-(pyridin-2-yl)-3,4-dihydro-2H-pyrido[1,2-a]pyrazine-1,8-dione hydrochloride] fall in the same range of IC50: 10 to 100 nM for the first, 10 to 100 nM for the second.

`COCCNC(=O)c1cn2ccn(Cc3ccc(F)cc3)c(=O)c2c(O)c1=O` [Example 322, N-(2-methoxyethyl)-2-(4-fluorobenzyl)-9-hydroxy-1,8-dioxo-1,8-dihydro-2H-pyrido[1,2-a]pyrazine-7-carboxamide] and `CCNC(=O)c1cn2ccn(Cc3ccc(F)cc3)c(=O)c2c(O)c1=O` [Example 323, N-ethyl-2-(4-fluorobenzyl)-9-hydroxy-1,8-dioxo-1,8-dihydro-2H-pyrido[1,2-a]pyrazine-7-carboxamide] fall in the same range of IC50: 10 to 100 nM for the first, 10 to 100 nM for the second.

For `CC(=O)Nc1cn2ccn(CCCc3c(F)cccc3Cl)c(=O)c2c(O)c1=O` [Example 324, N-{2-[3-(2-chloro-6-fluorophenyl)propyl]-9-hydroxy-1,8-dioxo-1,8-dihydro-2H-pyrido[1,2-a]pyrazin-7-yl]acetamide], the IC50 was 10 to 100 nM.
